{"source": "paper PMC12027946", "about": "“Ionic and Non-Ionic Counterparts Based on Bis(Uracilyl)Alkane Moiety with Highest Selectivity Towards Acetylcholinesterase for Protection Against Organophosphate Poisoning and Treating Alzheimer’s Disease” (International Journal of Molecular Sciences, 2025)", "key": {"[1]": {"target": "T1, BChE from human plasma (Homo sapiens, UniProt P06276)", "T1 construct": "butyrylcholiesterase from human plasma; purchased Sigma-Aldrich; host or cells: human plasma", "T1 sequence (P06276 29-602)": "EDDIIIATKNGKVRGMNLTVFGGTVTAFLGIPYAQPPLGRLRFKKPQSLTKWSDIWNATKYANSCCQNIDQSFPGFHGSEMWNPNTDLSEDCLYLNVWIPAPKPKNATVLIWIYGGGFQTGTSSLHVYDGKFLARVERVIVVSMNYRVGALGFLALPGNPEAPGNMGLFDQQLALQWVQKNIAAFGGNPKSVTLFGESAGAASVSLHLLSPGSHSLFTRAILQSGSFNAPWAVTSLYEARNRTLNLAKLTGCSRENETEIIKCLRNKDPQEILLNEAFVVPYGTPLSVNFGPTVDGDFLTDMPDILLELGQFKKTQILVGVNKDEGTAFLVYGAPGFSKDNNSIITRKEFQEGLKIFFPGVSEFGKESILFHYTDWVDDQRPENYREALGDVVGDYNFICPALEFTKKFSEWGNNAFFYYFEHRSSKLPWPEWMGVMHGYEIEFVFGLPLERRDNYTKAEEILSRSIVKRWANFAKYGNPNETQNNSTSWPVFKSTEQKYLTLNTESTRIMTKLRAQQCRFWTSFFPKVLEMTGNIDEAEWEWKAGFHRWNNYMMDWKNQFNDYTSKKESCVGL", "test": "In vitro cholinesterase inhibition (Ellman), BuChE", "assay_type": "biochemical", "conditions": "read-out: IC50 BuChE", "description": "(§1) Inhibitory activities of the tested compounds against AChE and BChE were measured according to Ellman et al.. Enzyme-catalysed hydrolysis of ATCHh was carried out at 25 °C in 0.1 M phosphate buffer (pH 8.0) containing 0.25 U AChE, 1 mM ATCHh as substrates, and 0.1 mM of DTNB. In experiments with BuChE, 0.1 M phosphate buffer (pH 7.0) and BuTChh as a substrate were used. The tested compounds were pre-incubated with the enzyme for two minutes prior to the addition of the substrate and the subsequent recording of hydrolysis kinetics. […] A sample without an inhibitor was used as a control (100% cholinesterase activity). A sample without a substrate was used as a blank. Experiments were performed in triplicate."}, "[2]": {"target": "T2, human AChE (Homo sapiens, UniProt P22303)", "T2 construct": "purchased Sigma-Aldrich", "T2 sequence (P22303 32-614)": "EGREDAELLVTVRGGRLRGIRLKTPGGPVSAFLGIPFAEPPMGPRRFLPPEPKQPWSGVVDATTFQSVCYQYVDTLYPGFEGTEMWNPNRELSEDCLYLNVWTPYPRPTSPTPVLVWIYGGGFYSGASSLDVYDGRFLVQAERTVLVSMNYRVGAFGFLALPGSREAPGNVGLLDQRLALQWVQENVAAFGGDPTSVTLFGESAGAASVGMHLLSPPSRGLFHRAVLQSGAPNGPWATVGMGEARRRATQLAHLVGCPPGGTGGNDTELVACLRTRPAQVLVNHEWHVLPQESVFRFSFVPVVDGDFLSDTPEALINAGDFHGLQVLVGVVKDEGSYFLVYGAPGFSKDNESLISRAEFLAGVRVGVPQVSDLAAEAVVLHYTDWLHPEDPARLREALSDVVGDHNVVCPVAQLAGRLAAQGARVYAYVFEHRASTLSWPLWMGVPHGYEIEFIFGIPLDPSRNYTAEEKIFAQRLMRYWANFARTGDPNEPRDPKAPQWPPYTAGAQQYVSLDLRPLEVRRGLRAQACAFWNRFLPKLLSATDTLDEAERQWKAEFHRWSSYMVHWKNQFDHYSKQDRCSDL", "test": "In vitro cholinesterase inhibition (Ellman), AChE", "assay_type": "biochemical", "conditions": "for AChE Selectivity: (IC50 BuChE)/(IC50 AChE); for IC50: read-out: IC50 AChE", "description": "as §1"}, "[3]": {"system": "mice poisoned with 2×LD50 of POX", "test": "Protection against POX toxicity (pre-treatment)", "assay_type": "in vivo", "conditions": "for relative risk of death (RRD): Cox analysis over 10 h", "description": "The concept of using reversible AChE inhibition as a preventive strategy to enhance the efficacy of traditional antidotes in OP poisoning is a well-established principle. This study explores the potential of bisuracil 2b as a preventive agent to protect AChE from irreversible inhibition caused by paraoxon (POX), a model OP. […] Following POX administration, the standard antidote atropine was given at a dose of 15 mg/kg within one minute. […] Increasing the dose of bisuracil 2b reduced the protective effect in POX poisoned animals (Table 3).\nWe also estimated the relative risk of death (RRD) as a function of precocity (from min to hours) over a period of 10 h by Cox survival analysis. Statistical differences in the number of surviving animals between experimental groups were tested using the Cox–Mantel multisample logarithmic rank criterion. It was shown that, in mice exposed to 0.42 mg/kg of POX, RRD = 1 (Figure 5). However, in animals that received atropine within 1 min after poisoning, POX-induced mortality was lower (RRD = 0.5; Figure 5).\nThe tested compound was administered via i.p. before POX injection."}, "[4]": {"target": "T2, human AChE", "conditions": "Table 1, bisuracils 1a–f, cited from earlier work; for AChE Selectivity: (IC50 BuChE)/(IC50 AChE)"}, "[5]": {"target": "T1, BChE from human plasma", "conditions": "Table 1; bisuracils 1a–f; read-out: IC50 BuChE; cited from earlier work"}, "[6]": {"system": "scopolamine-induced amnesia in mice", "test": "Novel object recognition test, scopolamine-induced amnesia", "assay_type": "in vivo", "description": "This study explored the ability of bisuracil 3c to counteract scopolamine-induced amnesia in mice, utilising behavioural assessments conducted through the novel object recognition test. […] The induction of amnesia was facilitated by the i.p. injection of scopolamine (1.5 mg/kg) 50 min prior to testing. […]. An equivalent amount of the vehicle was administered to a control group of mice.\nThe experiments were carried out on CD1 mice of both sexes weighing 24–25 g. The novel object recognition test was conducted over a period of three days. On the first day, the mice were placed individually into the square testing arena with black walls (50 cm in length, 50 cm in width, 38 cm in height) for 5 min without any objects. On the second day, two identical objects were placed in the central part of the arena, and the mice were allowed to explore the objects for 10 min. Test compounds were administered prior to testing on the second day. The induction of amnesia was facilitated by i.p. injection of scopolamine (1.5 mg/kg) 50 min prior to testing. Tested compounds were administered i.p. 30 min prior to testing. The control group of animals was administered with an equivalent amount of vehicle. On the third day, the mice were presented with a familiar and a novel object for 10 min. The time of exploration of each object by the mice was recorded using a digital camera. After each test, the arena was cleaned with a solution of 70% ethanol. At the end of the test, the preference index (exploration of novel object/total exploration time × 100) was calculated."}, "[7]": {"system": "AChE", "conditions": "cited from earlier work"}, "[8]": {"conditions": "Table 1, BChE from human plasma, pH 7.0"}, "[9]": {"conditions": "Table 1, recombinant human AChE, 25 °C, pH 8.0"}}, "note": "Read-outs that look alike come from different tables or passages of the source.", "data": [{"smiles": "CCN(CCCCCn1c(=O)ccn(CCCn2c(C)cc(=O)n(C)c2=O)c1=O)Cc1ccccc1C#N", "note": "[3a]", "values": [{"measurement": "IC50", "setting": "[1]; Table 2, human BuChE", "result": 69.1, "unit": "µM"}, {"measurement": "AChE Selectivity", "setting": "[2]; Table 2", "result": "11,290"}, {"measurement": "IC50", "setting": "[2]; Table 2, human AChE", "result": "0.0061 ± 0.0007", "unit": "µM"}]}, {"smiles": "CC[N+](CC)(CCCCCn1c(=O)ccn(CCCCCn2c(C)cc(=O)n(C)c2=O)c1=O)Cc1ccccc1C#N", "note": "[2c, 1,5-{(3,6-Dimethyluracil-1-yl)-[3-(5-o-nitrilebenzyl(diethyl)ammonio)pentyl)-uracil-1-yl]}pentane bromide]", "values": [{"measurement": "IC50", "setting": "[1]; [8]", "result": 70, "unit": "µM"}, {"measurement": "AChE Selectivity", "setting": "[2]; Table 1", "result": "388,888"}, {"measurement": "IC50", "setting": "[2]; [9]", "result": "0.0002 ± 6e-05", "unit": "µM"}]}, {"smiles": "CCOP(=O)(OCC)Oc1ccc([N+](=O)[O-])cc1", "note": "[POX, paraoxon, reference compound]", "values": [{"measurement": "relative risk of death (RRD)", "setting": "[3]; POX 0.42 mg/kg alone", "result": 1}, {"measurement": "n/N (mice surviving 5 days after POX poisoning / total)", "setting": "[3]; POX 0.42 mg/kg i.p. (2×LD50) alone", "result": "0/12"}]}, {"smiles": "CC[N+](CC)(CCCCCn1c(=O)ccn(CCCCCCn2c(C)cc(=O)n(C)c2=O)c1=O)Cc1ccccc1C#N", "note": "[2d, 1,6-{(3,6-Dimethyluracil-1-yl)-[3-(5-o-nitrilebenzyl(diethyl)ammonio)pentyl)-uracil-1-yl]}hexane bromide]", "values": [{"measurement": "IC50", "setting": "[1]; [8]", "result": 30, "unit": "µM"}, {"measurement": "AChE Selectivity", "setting": "[2]; Table 1", "result": "57,034"}, {"measurement": "IC50", "setting": "[2]; [9]", "result": "0.0005 ± 0.00016", "unit": "µM"}]}, {"smiles": "CC[N+](CC)(CCCCCn1c(=O)ccn(CCCCCn2c(C)cc(=O)n(C)c2=O)c1=O)Cc1ccccc1C(F)(F)F", "note": "[1e]", "values": [{"measurement": "AChE Selectivity", "setting": "[4]", "result": "120,000"}, {"measurement": "IC50", "setting": "[4]", "result": "0.0005 ± 3e-05", "unit": "µM"}, {"measurement": "IC50", "setting": "[5]", "result": 60, "unit": "µM"}]}, {"smiles": "CC[N+](CC)(CCCCCn1c(=O)ccn(CCCn2c(C)cc(=O)n(C)c2=O)c1=O)Cc1ccccc1C(F)(F)F", "note": "[1c]", "values": [{"measurement": "AChE Selectivity", "setting": "[4]", "result": "220,000"}, {"measurement": "IC50", "setting": "[4]", "result": "0.002 ± 0.0002", "unit": "µM"}, {"measurement": "IC50", "setting": "[5]", "result": 440, "unit": "µM"}]}, {"smiles": "CCN(CCCCCn1c(=O)ccn(CCCCCCn2c(C)cc(=O)n(C)c2=O)c1=O)Cc1ccccc1C#N", "note": "[3d]", "values": [{"measurement": "IC50", "setting": "[1]; Table 2, human BuChE", "result": 95, "unit": "µM"}, {"measurement": "IC50", "setting": "[2]; Table 2, human AChE", "result": "0.0054 ± 0.0007", "unit": "µM"}]}, {"smiles": "CC[N+](CC)(CCCCCn1c(=O)ccn(CCCCCCn2c(C)cc(=O)n(C)c2=O)c1=O)Cc1ccccc1C(F)(F)F", "note": "[1f]", "values": [{"measurement": "AChE Selectivity", "setting": "[4]", "result": "200,000"}, {"measurement": "IC50", "setting": "[4]", "result": "0.0002 ± 1e-05", "unit": "µM"}, {"measurement": "IC50", "setting": "[5]", "result": 40, "unit": "µM"}]}, {"smiles": "COc1cc2c(cc1OC)C(=O)C(CC1CCN(Cc3ccccc3)CC1)C2", "note": "(stereo not drawn) [Donepezil, donepezil, reference compound]", "values": [{"measurement": "increase in the preference for the novel object compared to the scopolamine-treated group", "setting": "[6]; donepezil 1 mg/kg i.p. 30 min prior to testing, scopolamine 1.5 mg/kg, p = 0.03", "result": 32.2, "unit": "%"}]}, {"smiles": "CC[N+](CC)(CCCCCn1c(=O)ccn(CCCn2c(C)cc(=O)n(C)c2=O)c1=O)Cc1ccccc1C#N", "note": "[2a, 1,3-{(3,6-Dimethyluracil-1-yl)-[3-(5-o-nitrilebenzyl(diethyl)ammonio)pentyl)-uracil-1-yl]}propane bromide]", "values": [{"measurement": "IC50", "setting": "[1]; [8]", "result": 370, "unit": "µM"}, {"measurement": "IC50", "setting": "[2]; [9]", "result": "0.0003 ± 3e-05", "unit": "µM"}]}, {"smiles": "COc1ccc2c3c1O[C@H]1C[C@@H](O)C=C[C@@]31CCN(C)C2", "note": "[galantamine]", "values": [{"measurement": "selectivity for AChE over BuChE", "setting": "[7]", "result": 50, "unit": "fold"}]}, {"smiles": "CN1[C@@H]2C[C@@H](OC(=O)[C@H](CO)c3ccccc3)C[C@H]1[C@@H]1O[C@@H]12", "note": "[scopolamine, reference compound]", "values": [{"measurement": "reduction of the preference for the novel object compared to the control group", "setting": "[6]; scopolamine 1.5 mg/kg i.p. 50 min prior to testing, p = 0.0001", "result": 34.1, "unit": "%"}]}, {"smiles": "CN1[C@@H]2CC[C@H]1C[C@@H](OC(=O)C(CO)c1ccccc1)C2", "note": "(stereo partly drawn) [Atropine, atropine, reference compound]", "values": [{"measurement": "n/N (mice surviving 5 days after POX poisoning / total)", "setting": "[3]; atropine 15 mg/kg i.p. 1 min after POX 0.42 mg/kg i.p., no pre-treatment", "result": "6/12"}, {"measurement": "relative risk of death (RRD)", "setting": "[3]; atropine within 1 min after POX", "result": 0.5}]}, {"smiles": "CCN(C)C(=O)Oc1cccc([C@H](C)N(C)C)c1", "note": "[rivastigmine]", "values": [{"measurement": "inhibition profile (AChE vs BuChE)", "setting": "[7]", "result": "non-selective"}]}, {"smiles": "CC[N+](CC)(CCCCCn1c(=O)ccn(CCCCCCn2c(C)cc(=O)n(C)c2=O)c1=O)Cc1ccccc1[N+](=O)[O-]", "note": "[1b]", "values": [{"measurement": "AChE Selectivity", "setting": "[4]", "result": "60,000"}, {"measurement": "IC50", "setting": "[4]", "result": "0.0001 ± 1e-05", "unit": "µM"}, {"measurement": "IC50", "setting": "[5]", "result": "6 ± 0.43", "unit": "µM"}]}, {"smiles": "CCN(CCCCCn1c(=O)ccn(CCCCn2c(C)cc(=O)n(C)c2=O)c1=O)Cc1ccccc1C#N", "note": "[3b]", "values": [{"measurement": "IC50", "setting": "[1]; Table 2, human BuChE", "result": 48.3, "unit": "µM"}, {"measurement": "AChE Selectivity", "setting": "[2]; Table 2", "result": 6090}, {"measurement": "IC50", "setting": "[2]; Table 2, human AChE", "result": "0.0079 ± 0.00025", "unit": "µM"}]}, {"smiles": "CC[N+](CC)(CCCCCn1c(=O)ccn(CCCCCn2c(C)cc(=O)n(C)c2=O)c1=O)Cc1ccccc1[N+](=O)[O-]", "note": "[1a]", "values": [{"measurement": "AChE Selectivity", "setting": "[4]", "result": "112,676"}, {"measurement": "IC50", "setting": "[4]", "result": "0.0004 ± 3e-05", "unit": "µM"}, {"measurement": "IC50", "setting": "[5]", "result": 40, "unit": "µM"}]}, {"smiles": "CC[N+](CC)(CCCCCn1c(=O)ccn(CCCCn2c(C)cc(=O)n(C)c2=O)c1=O)Cc1ccccc1C(F)(F)F", "note": "[1d]", "values": [{"measurement": "AChE Selectivity", "setting": "[4]", "result": "200,000"}, {"measurement": "IC50", "setting": "[4]", "result": "0.001 ± 0.0001", "unit": "µM"}, {"measurement": "IC50", "setting": "[5]", "result": 200, "unit": "µM"}]}]}
